Results on three compounds are retold here after PMC8880564, “Design, Synthesis, and Biological Evaluation of a Novel VEGFR-2 Inhibitor Based on a 1,2,5-Oxadiazole-2-Oxide Scaffold with MAPK Signaling Pathway Inhibition” (Pharmaceuticals, 2022).

Holding throughout (assay): NCI-60 one-dose SRB screening
Type in all cases: cell-based

One assay deals with NCI-H460. The note with it: Homo sapiens, NCI-H460, Non-Small Cell Lung Cancer, 10 µM one dose, 48 h, read-out: growth percentage. How it is done: (§1) The structures of the synthesized compounds 6a–h, 12a–c, 11, 13a–c, and 14a–c were submitted to the National Cancer Institute’s Developmental Therapeutics Program (NCI-DTP), and all of them were selected for preliminary in vitro anticancer activity screening against NCI-59 human cancer cell lines at a concentration of 10 µM, using the sulforhodamine B (SRB) assay to determine the growth percentage and cell viability.
(§2) The in vitro NCI-60 cell line screening assay was conducted at the National Cancer Institute (NCI), Bethesda, USA against 59 cancer cell lines representing 9 types of cancers, as reported earlier. Briefly, the human cancer cell lines were grown in RPMI 1640 medium containing 5% fetal bovine serum and 2 mM L-glutamine and inoculated into 96-well microtiter plates in 100 μL (5000 to 40,000 cells/well). Then, the plates were incubated at 37 °C, 5% CO2, 95% air, and 100% relative humidity for 24 h. After that, two plates of each cell line were fixed in situ with TCA, to represent cell population at time zero (Tz). The tested compounds were dissolved in DMSO at 400-fold and added so that the final concentration became 10 μM. The plates were then incubated for an additional 48 h followed by the addition of cold TCA to terminate the assay in case of adherent cells. Then, the cells were fixed in situ by cold 50% (w/v) TCA (50 μL; final concentration, 10% TCA) and incubated for 1 h at 4 °C. After discarding the supernatant, the plates were washed 5 times with tap water and air dried. Sulforhodamine B (SRB) solution (100 μL) at 0.4% (w/v) in 1% HOAc was added to each well, and plates were incubated for 10 min. at rt. Then, washing with 1% acetic acid was conducted 5 times to remove the unbound dye followed by air drying. After that, 10 mM trizma base was added to solubilize the bound stain, and the absorbance was read on an automated plate reader at a wavelength of 515 nm. On the other hand, the methodology for suspension cells was the same except that 50 μL of 80% TCA (final concentration, 16% TCA) was gently added to terminate the assay by fixing settled cells at the bottom of the wells. Percentage growth inhibition (GI%) was calculated as follows:
(§3) Growth percentage=Ti (test growth in the presence of compound at 10 µM )−Tz (time zero)/C (control growth)−Tz (time zero)×100 for Ti ≥ Tz;
(§4) Growth percentage=Ti (test growth in the presence of compound at 10 µM )−Tz (time zero)/Tz (time zero)×100 for Ti < Tz.
(§5) where values of 100, 40, 0, −40, and −100 mean no GI, 60% GI, no net G, 40% lethality, and all cells are dead, respectively.

The test system of a further assay is K-562. The note with it: Homo sapiens, K562, K-562, Leukemia, 10 µM one dose, 48 h, read-out: growth percentage. Here is the method: as §1, §2, §3, §4, §5
A further assay deals with T-47D. The note with it: Homo sapiens, T47D, Breast Cancer, 10 µM one dose, 48 h, read-out: growth percentage. How it is done:
as §1, §2, §3, §4, §5

In another assay the test system is COLO 205. The note with it: Homo sapiens, COLO 205, Colon Cancer, 10 µM one dose, 48 h, read-out: growth percentage. How it is done:
as §1, §2, §3, §4, §5

Another assay concerns NCI/ADR-RES. The note with it: Homo sapiens, Ovarian Cancer, 10 µM one dose, 48 h, read-out: growth percentage. How it is done: as §1, §2, §3, §4, §5
In a further assay the test system is TK-10. To be noted: Homo sapiens, TK-10, Renal Cancer, 10 µM one dose, 48 h, read-out: growth percentage. How it is done: as §1, §2, §3, §4, §5
The test system of a further assay is RXF 393. The note with it: Homo sapiens, RXF 393, Renal Cancer, 10 µM one dose, 48 h, read-out: growth percentage. How it is done:
as §1, §2, §3, §4, §5

The next assay has as its system OVCAR-3. The note with it: Homo sapiens, OVCAR-3, Ovarian Cancer, 10 µM one dose, 48 h, read-out: growth percentage. How it is done: as §1, §2, §3, §4, §5
For another assay, the system named is MDA-MB-468. To be noted: Homo sapiens, MDA-MB-468, Breast Cancer, 10 µM one dose, 48 h, read-out: growth percentage. Here is the method:
as §1, §2, §3, §4, §5

The subject of the next assay is NCI-H23. The note with it: Homo sapiens, NCI-H23, Non-Small Cell Lung Cancer, 10 µM one dose, 48 h, read-out: growth percentage. Here is the method: as §1, §2, §3, §4, §5
A further assay relates to NCI-H522. To be noted: Homo sapiens, NCI-H522, Non-Small Cell Lung Cancer, 10 µM one dose, 48 h, read-out: growth percentage. How it is done: as §1, §2, §3, §4, §5
The next assay concerns HOP-92. To be noted: Homo sapiens, HOP-92, Non-Small Cell Lung Cancer, 10 µM one dose, 48 h, read-out: growth percentage. How it is done: as §1, §2, §3, §4, §5
The next assay deals with ACHN. The note with it: Homo sapiens, Renal Cancer, 10 µM one dose, 48 h, read-out: growth percentage. How it is done:
as §1, §2, §3, §4, §5

The next assay concerns CAKI-1. The note with it: Homo sapiens, CAKI-1, Renal Cancer, 10 µM one dose, 48 h, read-out: growth percentage. How it is done:
as §1, §2, §3, §4, §5

Another assay concerns UACC-257. The note with it: Homo sapiens, UACC-257, Melanoma, 10 µM one dose, 48 h, read-out: growth percentage. Here is the method:
as §1, §2, §3, §4, §5

Another assay concerns MCF7. The note with it: Homo sapiens, MCF7, Breast Cancer, 10 µM one dose, 48 h, read-out: growth percentage. How it is done:
as §1, §2, §3, §4, §5

Another assay deals with SK-MEL-5. To be noted: Homo sapiens, SK-MEL-5, Melanoma, 10 µM one dose, 48 h, read-out: growth percentage. How it is done: as §1, §2, §3, §4, §5
The next assay has as its system IGROV1. The note with it: Homo sapiens, IGROV-1, IGROV1, Ovarian Cancer, 10 µM one dose, 48 h, read-out: growth percentage. How it is done:
as §1, §2, §3, §4, §5

For a further assay, the system named is LOX IMVI. The note with it: Homo sapiens, Melanoma, 10 µM one dose, 48 h, read-out: growth percentage. Here is the method:
as §1, §2, §3, §4, §5

For another assay, the system named is EKVX. To be noted: Homo sapiens, Non-Small Cell Lung Cancer, 10 µM one dose, 48 h, read-out: growth percentage. How it is done:
as §1, §2, §3, §4, §5

The test system of the next assay is A498. The note with it: Homo sapiens, A498, Renal Cancer, 10 µM one dose, 48 h, read-out: growth percentage. How it is done:
as §1, §2, §3, §4, §5

A further assay has as its system UACC-62. The note with it: Homo sapiens, UACC-62, Melanoma, 10 µM one dose, 48 h, read-out: growth percentage. How it is done: as §1, §2, §3, §4, §5

For `[O-][n+]1onc(-c2ccccc2)c1COc1ccc(Nc2ncnc3c2cnn3-c2ccc(Br)cc2)cc1` [6e, 3-((4-((1-(4-bromophenyl)-1H-pyrazolo[3,4-d]pyrimidin-4-yl)amino)phenoxy)methyl)-4-phenyl-1,2,5-oxadiazole 2-oxide], the activity at 10 µM in the assay with NCI-H460 is 111%; in the assay with K-562, 98.5%; in the assay with T-47D, 99.9%; in the assay on COLO 205, 105%; in the assay with NCI/ADR-RES it was 107%; in the assay with TK-10, 107%. Besides, the activity at 10 µM in the assay with RXF 393 came to 119%; with OVCAR-3 it was 117%; in the assay on MDA-MB-468, 106%; in the assay on NCI-H23, 101%; with NCI-H522, 96.1%; with HOP-92, 109%. Further, the activity at 10 µM is 103% with ACHN; 82.1% in the assay on CAKI-1; 104% in the assay on UACC-257; 87.9% with MCF7; 95.9% with SK-MEL-5; 106% with IGROV1. Also, the activity at 10 µM worked out at 111% with LOX IMVI, 96.3% in the assay on EKVX, 94% with A498 and 89.1% in the assay with UACC-62.

For `Cc1nc(Nc2ccc(OCc3c(-c4ccccc4)no[n+]3[O-])cc2)c2cnn(-c3ccc(Br)cc3)c2n1` [6f, 3-((4-((1-(4-bromophenyl)-6-methyl-1H-pyrazolo[3,4-d]pyrimidin-4-yl)amino)phenoxy)methyl)-4-phenyl-1,2,5-oxadiazole 2-oxide], the activity at 10 µM in the assay on NCI-H460 came to 103%; with K-562, 91.1%; in the assay with T-47D, 97.2%; in the assay on COLO 205, 119%; in the assay with NCI/ADR-RES it was 106%; with TK-10, 97.7%. Moreover, the activity at 10 µM in the assay on RXF 393 turned out to be 121%; in the assay with OVCAR-3, 114%; in the assay with MDA-MB-468, 111%; with NCI-H23, 95.8%; in the assay on NCI-H522 it was 92.5%; in the assay on HOP-92 it was 111%. The activity at 10 µM was 101% in the assay on ACHN; 81.9% in the assay on CAKI-1; 101% in the assay on UACC-257; 85.3% in the assay with MCF7; 99.7% in the assay with SK-MEL-5; 101% in the assay on IGROV1. Moreover, the activity at 10 µM in the assay with LOX IMVI was determined as 105%; in the assay with EKVX it was 91.4%; with A498 it was 87.2%; in the assay with UACC-62 it was 84.8%.

With `Cc1nn(-c2ccc(Br)cc2)c2ncnc(Nc3ccc(OCc4c(-c5ccccc5)no[n+]4[O-])cc3)c12` [6g, 3-((4-((1-(4-bromophenyl)-3-methyl-1H-pyrazolo[3,4-d]pyrimidin-4-yl)amino)phenoxy)methyl)-4-phenyl-1,2,5-oxadiazole 2-oxide], the activity at 10 µM in the assay on NCI-H460 came to 100%; in the assay with K-562 it was 103%; in the assay with T-47D, 98.5%; in the assay with COLO 205 it was 117%; in the assay on NCI/ADR-RES, 93.8%; in the assay with TK-10, 123%. In addition, the activity at 10 µM in the assay with RXF 393 stood at 131%; in the assay with OVCAR-3, 112%; in the assay with MDA-MB-468 it was 97.4%; in the assay on NCI-H23 it was 95%; with NCI-H522, 92%; with HOP-92 it was 86.5%. The activity at 10 µM with ACHN is 88%; in the assay on CAKI-1, 84.9%; in the assay on UACC-257 it was 97.1%; in the assay with MCF7 it was 89%; with SK-MEL-5, 96.5%; in the assay on IGROV1, 88.2%. The activity at 10 µM with LOX IMVI was 95%; in the assay on EKVX, 83.5%; with A498, 106%; in the assay on UACC-62, 80.3%.
